# Data from PubChem BioAssay AID2821 (Broad Institute, 2010).
# Active and inactive are the calls of the source.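 The calls were made as follows: active = IC50 no more than a set number of log units above the top dose tested; inconclusive = flat fit with 30 to 70% inhibition, or a poor fit; inactive = IC50 beyond that set limit.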
# Molecular target: Serine/threonine-protein kinase 33 (Homo sapiens) (UniProt Q9BYT3)
# Experiment: STK33 kinase inhibitors, dose response, biochemical, luminescence, cell-free, retest (AID 2821)
# Settings: purified STK33, MBP substrate, ADP-Glo luminescence
# Sequence of Serine/threonine-protein kinase 33 (Homo sapiens) (Q9BYT3 whole entry, looked up): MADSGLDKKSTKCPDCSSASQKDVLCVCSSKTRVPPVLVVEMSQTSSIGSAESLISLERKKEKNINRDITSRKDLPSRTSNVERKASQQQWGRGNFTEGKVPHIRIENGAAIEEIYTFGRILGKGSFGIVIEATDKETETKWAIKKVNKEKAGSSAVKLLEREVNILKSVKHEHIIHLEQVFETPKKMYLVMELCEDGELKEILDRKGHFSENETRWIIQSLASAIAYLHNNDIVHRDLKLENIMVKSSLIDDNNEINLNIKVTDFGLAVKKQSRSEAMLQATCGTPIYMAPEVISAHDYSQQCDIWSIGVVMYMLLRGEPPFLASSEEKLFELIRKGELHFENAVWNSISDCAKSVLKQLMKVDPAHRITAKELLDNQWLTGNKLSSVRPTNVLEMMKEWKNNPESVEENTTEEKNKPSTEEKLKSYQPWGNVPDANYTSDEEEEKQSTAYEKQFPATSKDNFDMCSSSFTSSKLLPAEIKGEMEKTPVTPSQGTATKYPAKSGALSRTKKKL
row,SMILES,IC50
1,Oc1ccc(/C=N/Nc2ccnc3cc(Cl)ccc23)cc1O,3.05 µM
2,COc1cc(/C=C/C(O)=C/C(=O)/C=C/c2ccc(O)cc2)ccc1O,1.75 µM
3,NS(=O)(=O)c1ccc2c(c1)C(=NO)c1cc(S(N)(=O)=O)ccc1-2,4.91 µM
4,O=C1C(c2ccncc2)=C(O)c2ccccc21,10.3 µM
5,COC(=O)c1cccc2c1-c1ccccc1/C2=N/O,11.8 µM
6,COc1cc(C2c3sc(=O)[nH]c3SC3C(=O)N(c4ccc(C)cc4)C(=O)C32)ccc1O (stereo not given),> 12 µM (inactive)
7,Oc1[nH]c2ccccc2c1C=Nc1ccc2c(c1)OCO2,11.3 µM
8,COc1cc(/C=C/C(=O)/C=C(O)/C=C/c2ccc(O)c(OC)c2)ccc1O,0.71 µM
9,CCCn1c2ccc(/C(C)=N\O)cc2c2cc(/C(C)=N/O)ccc21,2.48 µM
10,CCn1c2ccc(/C(C)=N\O)cc2c2cc(/C(C)=N\O)ccc21,> 12 µM (inactive)
11,O=c1c(/C=N/O)c(Nc2ccccc2)nc2ccccn12,6.22 µM
12,COc1ccc(N=Cc2c(O)[nH]c3ccccc23)cc1OC,5.22 µM
13,Oc1ccc(/C=C/c2ccnc3ccccc23)cc1,11.5 µM
14,N#C/C(=C(/O)c1ccco1)c1nc2ccccc2[nH]1,8.49 µM
15,COc1cc(N=Cc2c(O)[nH]c3ccccc23)cc(OC)c1OC,4.93 µM
